Patent US20130230459A1, “RADIOLABELLED mGluR2 PET LIGANDS” (Janssen Pharmaceuticals, Inc., priority 2010, published 2013)
Where “and” joins values, the source holds several entries; their conditions need not be identical. Equal values may be shown once.

Legend:
[1] = Biodistribution studies of 11C tracers; type: in vivo, Wistar rats; conditions: for SUV Blood / SUV Cerebellum / SUV Cerebrum total / SUV Cortex / SUV Hippocampus / SUV Striatum: normalized for body weight;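 for Total brain uptake: percentage of injected dose (% ID)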
Summary of the method: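 Healthy male Wistar rats (n=3 per time point) received about 11 or 22 MBq tracer i.v. via tail vein under isoflurane; sacrificed at 2, 30 and 60 min p.i. Gamma counting of blood and organs gave %ID and %ID/g, with blood taken as 7% of body mass.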

mGluR2 = target: T1, mGluR2 (Rattus norvegicus, UniProt P31421); experiment: MicroPET imaging: baseline, blocking and chase experiments; type: in vivo, Wistar rats
T1 construct: from tissue; host or cells: brain of living male Wistar rats (in vivo microPET)
T1 sequence (P31421 19-872): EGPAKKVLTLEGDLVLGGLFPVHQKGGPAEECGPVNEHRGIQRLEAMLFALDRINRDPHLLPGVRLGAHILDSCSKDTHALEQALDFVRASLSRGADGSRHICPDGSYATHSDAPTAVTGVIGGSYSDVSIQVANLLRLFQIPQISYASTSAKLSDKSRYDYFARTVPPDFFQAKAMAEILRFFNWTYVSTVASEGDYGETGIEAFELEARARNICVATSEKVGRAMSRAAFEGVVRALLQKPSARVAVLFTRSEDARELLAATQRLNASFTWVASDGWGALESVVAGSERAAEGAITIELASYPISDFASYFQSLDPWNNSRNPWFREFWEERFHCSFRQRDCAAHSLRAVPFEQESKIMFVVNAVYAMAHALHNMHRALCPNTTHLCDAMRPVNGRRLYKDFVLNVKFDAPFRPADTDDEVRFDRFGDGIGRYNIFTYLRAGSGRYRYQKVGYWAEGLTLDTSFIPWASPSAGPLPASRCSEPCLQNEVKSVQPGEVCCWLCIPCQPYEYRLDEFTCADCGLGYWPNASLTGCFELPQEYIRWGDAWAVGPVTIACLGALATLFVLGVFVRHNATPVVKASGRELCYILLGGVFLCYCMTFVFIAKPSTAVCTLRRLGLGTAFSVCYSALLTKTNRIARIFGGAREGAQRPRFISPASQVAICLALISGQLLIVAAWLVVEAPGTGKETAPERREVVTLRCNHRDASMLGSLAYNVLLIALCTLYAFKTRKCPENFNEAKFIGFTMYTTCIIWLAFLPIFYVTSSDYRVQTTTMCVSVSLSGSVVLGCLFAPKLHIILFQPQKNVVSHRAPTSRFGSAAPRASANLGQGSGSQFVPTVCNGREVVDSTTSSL
Summary of the method: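 Healthy male Wistar rats under isoflurane; 30-60 MBq [11C]tracer i.v., 90 min dynamic microPET, regional SUV time-activity curves. Self-block: B-4 10 mg/kg s.c. 30 min pre-tracer; chase: i.v. 30 min post-tracer with B-4 3 mg/kg, compound B 4, 1, 0.3 or 0.1 mg/kg, compound A 1 mg/kg or ritanserin 0.3 mg/kg.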

% ID Blood ([1]; 2 min p.i.): 5.4 % ID and 5.4 ± 0.3 % ID
% ID Carcass ([1]; 2 min p.i.): 40 % ID and 39.8 ± 2.8 % ID
% ID Cerebellum ([1]; 2 min p.i.): 0.18 % ID and 0.179 ± 0.043 % ID
% ID Cerebrum total ([1]; 2 min p.i.): 0.53 % ID and 0.529 ± 0.098 % ID
% ID Cortex ([1]; 2 min p.i.): 0.081 ± 0.011 % ID
% ID Heart ([1]; 2 min p.i.): 4.1 ± 0.4 % ID
% ID Hippocampus ([1]; 2 min p.i.): 0.020 ± 0.004 % ID
% ID Intestines ([1]; 2 min p.i.): 8.2 ± 1.1 % ID
% ID Kidneys ([1]; 2 min p.i.): 6.5 ± 0.7 % ID
% ID Liver ([1]; 2 min p.i.): 33.4 ± 2.0 % ID
% ID Lungs ([1]; 2 min p.i.): 1.8 ± 0.7 % ID
% ID Rest of cerebrum ([1]; 2 min p.i.): 0.428 ± 0.084 % ID
% ID Spleen + Pancreas ([1]; 2 min p.i.): 1.3 ± 0.2 % ID
% ID Stomach ([1]; 2 min p.i.): 1.5 ± 0.2 % ID
% ID Striatum ([1]; 2 min p.i.): 0.028 ± 0.008 % ID
% ID Urine ([1]; 2 min p.i.): 0.1 ± 0.0 % ID
Total brain uptake ([1]; 2 min p.i.): 0.75 % ID and 0.75 ± 0.1 % ID
% ID Blood ([1]; 30 min p.i.): 3.5 ± 0.2 % ID
% ID Carcass ([1]; 30 min p.i.): 64.9 ± 4.2 % ID
% ID Cerebellum ([1]; 30 min p.i.): 0.198 ± 0.026 % ID
% ID Cerebrum total ([1]; 30 min p.i.): 0.718 ± 0.142 % ID
% ID Cortex ([1]; 30 min p.i.): 0.120 ± 0.018 % ID
% ID Heart ([1]; 30 min p.i.): 1.4 ± 0.2 % ID
% ID Hippocampus ([1]; 30 min p.i.): 0.030 ± 0.003 % ID
% ID Intestines ([1]; 30 min p.i.): 10.2 ± 1.5 % ID
% ID Kidneys ([1]; 30 min p.i.): 2.8 ± 0.3 % ID
% ID Liver ([1]; 30 min p.i.): 14.6 ± 1.2 % ID
% ID Lungs ([1]; 30 min p.i.): 0.6 ± 0.1 % ID
% ID Rest of cerebrum ([1]; 30 min p.i.): 0.523 ± 0.117 % ID
% ID Spleen + Pancreas ([1]; 30 min p.i.): 1.2 ± 0.3 % ID
% ID Stomach ([1]; 30 min p.i.): 1.4 ± 0.2 % ID
% ID Striatum ([1]; 30 min p.i.): 0.045 ± 0.014 % ID
% ID Urine ([1]; 30 min p.i.): 0.4 ± 0.1 % ID
Total brain uptake ([1]; 30 min p.i.): 0.93 ± 0.2 % ID
% ID Blood ([1]; 60 min p.i.): 3.7 % ID and 3.7 ± 0.4 % ID
% ID Carcass ([1]; 60 min p.i.): 61.5 ± 5.7 % ID
% ID Cerebellum ([1]; 60 min p.i.): 0.163 ± 0.011 % ID
% ID Cerebrum total ([1]; 60 min p.i.): 0.543 ± 0.014 % ID
% ID Cortex ([1]; 60 min p.i.): 0.059 ± 0.007 % ID
% ID Heart ([1]; 60 min p.i.): 0.9 ± 0.1 % ID
% ID Hippocampus ([1]; 60 min p.i.): 0.022 ± 0.003 % ID
% ID Intestines ([1]; 60 min p.i.): 13.4 ± 3.3 % ID
% ID Kidneys ([1]; 60 min p.i.): 2.0 ± 0.3 % ID
% ID Liver ([1]; 60 min p.i.): 15.3 ± 2.1 % ID
% ID Lungs ([1]; 60 min p.i.): 0.7 ± 0.1 % ID
% ID Rest of cerebrum ([1]; 60 min p.i.): 0.435 ± 0.004 % ID
% ID Spleen + Pancreas ([1]; 60 min p.i.): 0.9 ± 0.0 % ID
% ID Stomach ([1]; 60 min p.i.): 2.4 ± 0.7 % ID
% ID Striatum ([1]; 60 min p.i.): 0.026 ± 0.007 % ID
% ID Urine ([1]; 60 min p.i.): 0.5 ± 0.2 % ID
% ID present in liver and intestines ([1]; 60 min p.i.): 28.7 % ID
% ID present in the urinary system ([1]; 60 min p.i.): 2.5 % ID
Total brain uptake ([1]; 60 min p.i.): 0.72 ± 0.0 % ID
% reduction of SUV (total brain) due to chase (mGluR2; chase compound B 4 mg/kg i.v.): 58%
SUV (total brain) before chase (mGluR2; maximum SUV, chase compound B 4 mg/kg i.v. 30 min after tracer): 1.2
SUV (total brain) after chase (mGluR2; minimum SUV, chase compound B 4 mg/kg i.v. 30 min after tracer): 0.5
SMILES: [11CH3]Oc1cc(F)cc(F)c1C1CCN(c2ccn3c(CC4CC4)nnc3c2Cl)CC1 [[^11C]B-7, 8-chloro-3-(cyclopropylmethyl)-7-[4-[2,4-difluoro-6-[^11C]methoxyphenyl]-1-piperidinyl]-1,2,4-triazolo[4,3-a]pyridine]
SUV Blood ([1]; 2 min p.i.): 0.80 ± 0.00
SUV Cerebellum ([1]; 2 min p.i.): 1.53 ± 0.03
SUV Cerebrum total ([1]; 2 min p.i.): 1.08 ± 0.02
SUV Cortex ([1]; 2 min p.i.): 1.14 ± 0.03
SUV Hippocampus ([1]; 2 min p.i.): 0.85 ± 0.02
SUV Striatum ([1]; 2 min p.i.): 1.13 ± 0.03
SUV Blood ([1]; 30 min p.i.): 0.50 ± 0.00
SUV Cerebellum ([1]; 30 min p.i.): 2.0 and 2.00 ± 0.03
SUV Cerebrum total ([1]; 30 min p.i.): 1.51 ± 0.03
SUV Cortex ([1]; 30 min p.i.): 1.72 ± 0.05
SUV Hippocampus ([1]; 30 min p.i.): 1.20 ± 0.01
SUV Striatum ([1]; 30 min p.i.): 1.70 ± 0.03
SUV Blood ([1]; 60 min p.i.): 0.50 ± 0.01
SUV Cerebellum ([1]; 60 min p.i.): 1.50 ± 0.01
SUV Cerebrum total ([1]; 60 min p.i.): 1.19 ± 0.01
SUV Cortex ([1]; 60 min p.i.): 1.10 ± 0.01
SUV Hippocampus ([1]; 60 min p.i.): 0.98 ± 0.01
SUV Striatum ([1]; 60 min p.i.): 1.43 ± 0.01
